Measurements from patent US10781224B2, “Bis(oxymethyl)phosphinic acid and biogenic metal salts thereof as regulators of plant growth and development” (priority 2016, dated 2020).

Key:
[1] = test system: corn (Krasnodar 385 MV variety); assay: Corn seed treatment with BHMPA salts: germinating power; format: in vivo
Summary of the method: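 Seeds (50 per Petri dish on two layers of filter paper) soaked 1 h in BHMPA or its Ca, Mg, Na, Co, Mn, Cu or Zn salts at 1·10^−6-1·10^−12%, with water controls. Germination energy read on day 4, germination on day 8 (wheat) or day 7 (rice, corn), as % means of four replicates. Germinating power taken as root and sprout length plus wet and dry mass per 100 seedlings.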

[2] = test system: winter wheat (Vershin variety); assay: Winter wheat seed treatment with BHMPA salts: germination energy and germination rate; format: in vivo
Summary of the method: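 Corn, winter wheat and rice seeds (50 per dish, on filter paper) were soaked for 1 h in BHMPA or its metal salts at 1·10^−6-1·10^−12%, with water as control. Germination energy was read on day 4 and germination rate on day 8 for wheat and day 7 for rice and corn, following GOST 12038-84, as the mean of four replicates.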

[3] = corn seeds, solution concentration 1 · 10^−6%, manganese salt of BHMPA
[4] = corn seeds, solution concentration 1 · 10^−7%, manganese salt of BHMPA
[5] = corn seeds, solution concentration 1 · 10^−8%, manganese salt of BHMPA
[6] = corn seeds, solution concentration 1 · 10^−9%, manganese salt of BHMPA
[7] = corn seeds, solution concentration 1 · 10^−10%, manganese salt of BHMPA
[8] = corn seeds, solution concentration 1 · 10^−11%, manganese salt of BHMPA
[9] = corn seeds, solution concentration 1 · 10^−12%, manganese salt of BHMPA
[10] = winter wheat Vershin, 1·10^−6% solution
[11] = winter wheat Vershin, 1·10^−7% solution
[12] = winter wheat Vershin, 1·10^−8% solution
[13] = winter wheat Vershin, 1·10^−9% solution
[14] = winter wheat Vershin, 1·10^−10% solution
[15] = winter wheat Vershin, 1·10^−11% solution
[16] = winter wheat Vershin, 1·10^−12% solution
[17] = winter wheat, comparative study vs Melaphen, 1·10^−9% solution

SMILES: O.O.O=P([O-])(CO)CO.O=P([O-])(CO)CO.[Mn+2] [Mn-salt, Manganese BHMPA Salt]
- optimum concentration for treating corn seeds before sowing ([1]; corn): 1·10^−9%
- Length, root [1, 3]: 4.6 cm
- Length, root, + % to control [1, 3]: −4%
- Length, sprout [1, 3]: 2.8 cm
- Length, sprout, + % to control [1, 3]: −18%
- Mass, dry, root [1, 3]: 1.47 g/100 plantlings
- Mass, dry, root, + % to control [1, 3]: 6%
- Mass, dry, sprout [1, 3]: 0.83 g/100 plantlings
- Mass, dry, sprout, + % to control [1, 3]: 5%
- Mass, wet, root [1, 3]: 9.87 g/100 plantlings
- Mass, wet, root, + % to control [1, 3]: 12%
- Mass, wet, sprout [1, 3]: 5.92 g/100 plantlings
- Mass, wet, sprout, + % to control [1, 3]: 0%
- Length, root [1, 4]: 5.0 cm
- Length, root, + % to control [1, 4]: 4%
- Length, sprout [1, 4]: 3.1 cm
- Length, sprout, + % to control [1, 4]: −9%
- Mass, dry, root [1, 4]: 1.55 g/100 plantlings
- Mass, dry, root, + % to control [1, 4]: 11.5%
- Mass, dry, sprout [1, 4]: 0.89 g/100 plantlings
- Mass, dry, sprout, + % to control [1, 4]: 13%
- Mass, wet, root [1, 4]: 10.61 g/100 plantlings
- Mass, wet, root, + % to control [1, 4]: 20%
- Mass, wet, sprout [1, 4]: 6.63 g/100 plantlings
- Mass, wet, sprout, + % to control [1, 4]: 12%
- Length, root [1, 5]: 5.4 cm
- Length, root, + % to control [1, 5]: 12.5%
- Length, sprout [1, 5]: 3.6 cm
- Length, sprout, + % to control [1, 5]: 6%
- Mass, dry, root [1, 5]: 1.69 g/100 plantlings
- Mass, dry, root, + % to control [1, 5]: 21.5%
- Mass, dry, sprout [1, 5]: 1.05 g/100 plantlings
- Mass, dry, sprout, + % to control [1, 5]: 33%
- Mass, wet, root [1, 5]: 11.92 g/100 plantlings
- Mass, wet, root, + % to control [1, 5]: 35%
- Mass, wet, sprout [1, 5]: 7.03 g/100 plantlings
- Mass, wet, sprout, + % to control [1, 5]: 19%
- Length, root [1, 6]: 5.8 cm
- Length, root, + % to control [1, 6]: 21%
- Length, sprout [1, 6]: 3.9 cm
- Length, sprout, + % to control [1, 6]: 15%
- Mass, dry, root [1, 6]: 1.82 g/100 plantlings
- Mass, dry, root, + % to control [1, 6]: 31%
- Mass, dry, sprout [1, 6]: 1.25 g/100 plantlings
- Mass, wet, root [1, 6]: 12.62 g/100 plantlings
- Mass, wet, root, + % to control [1, 6]: 43%
- Mass, wet, sprout [1, 6]: 7.69 g/100 plantlings
- Mass, wet, sprout, + % to control [1, 6]: 30%
- Length, root [1, 7]: 5.5 cm
- Length, root, + % to control [1, 7]: 14.5%
- Length, sprout [1, 7]: 3.7 cm
- Length, sprout, + % to control [1, 7]: 9%
- Mass, dry, root [1, 7]: 1.72 g/100 plantlings
- Mass, dry, root, + % to control [1, 7]: 24%
- Mass, dry, sprout [1, 7]: 1.17 g/100 plantlings
- Mass, dry, sprout, + % to control [1, 7]: 48%
- Mass, wet, root [1, 7]: 12.06 g/100 plantlings
- Mass, wet, root, + % to control [1, 7]: 36.5%
- Mass, wet, sprout [1, 7]: 7.29 g/100 plantlings
- Mass, wet, sprout, + % to control [1, 7]: 23.5%
- Length, root [1, 8]: 5.3 cm
- Length, root, + % to control [1, 8]: 10%
- Length, sprout [1, 8]: 3.4 cm
- Length, sprout, + % to control [1, 8]: 0%
- Mass, dry, root [1, 8]: 1.61 g/100 plantlings
- Mass, dry, root, + % to control [1, 8]: 16%
- Mass, dry, sprout [1, 8]: 0.92 g/100 plantlings
- Mass, dry, sprout, + % to control [1, 8]: 16%
- Mass, wet, root [1, 8]: 11.78 g/100 plantlings
- Mass, wet, root, + % to control [1, 8]: 33%
- Mass, wet, sprout [1, 8]: 6.91 g/100 plantlings
- Mass, wet, sprout, + % to control [1, 8]: 17%
- Length, root [1, 9]: 4.9 cm
- Length, root, + % to control [1, 9]: 2%
- Length, sprout [1, 9]: 2.9 cm
- Length, sprout, + % to control [1, 9]: −15%
- Mass, dry, root [1, 9]: 1.47 g/100 plantlings
- Mass, dry, root, + % to control [1, 9]: 6%
- Mass, dry, sprout [1, 9]: 0.79 g/100 plantlings
- Mass, dry, sprout, + % to control [1, 9]: 0%
- Mass, wet, root [1, 9]: 10.88 g/100 plantlings
- Mass, wet, root, + % to control [1, 9]: 23%
- Mass, wet, sprout [1, 9]: 6.28 g/100 plantlings
- Mass, wet, sprout, + % to control [1, 9]: 6%
- effectiveness on germinating power ([1]; corn, 1·10^−6%, 1·10^−7%, 1·10^−11% and 1·10^−12% solutions): ineffective
- Length, root, + % to control ([1]; corn, 1·10^−9% solution): 21%
- Length, sprout, + % to control ([1]; corn, 1·10^−9% solution): 15%
- Mass, dry, root, + % to control ([1]; corn, 1·10^−9% solution): 31%
- Mass, dry, sprout, + % to control ([1]; corn, 1·10^−9% solution): 58%
- Mass, wet, root, + % to control ([1]; corn, 1·10^−9% solution): 43%
- Mass, wet, sprout, + % to control ([1]; corn, 1·10^−9% solution): 30%
- Germination energy [2, 10]: 72.0%
- Germination rate [2, 10]: 69.3%
- Germination energy [2, 11]: 73.6%
- Germination rate [2, 11]: 76.0%
- Germination energy [2, 12]: 77.9%
- Germination rate [2, 12]: 82.7%
- Germination energy [2, 13]: 85.5%
- Germination rate [2, 13]: 88.7%
- Germination energy [2, 14]: 83.0%
- Germination rate [2, 14]: 85.3%
- Germination energy [2, 15]: 76.1%
- Germination rate [2, 15]: 78.8%
- Germination energy [2, 16]: 71.6%
- Germination rate [2, 16]: 74.0%
- Germination energy [2, 17]: 88.0%
- Germination rate [2, 17]: 93.7%
